The test system of one data set is Juvenile S. mansoni. Briefly: In vitro juvenile (3 week old) S. mansoni worm assay. The data set is classed as cell-based. The conditions noted are these: Schistosoma mansoni; Table 2; in vitro, 120 h incubation. The text has this:
(§1) The Puerto Rican strain of S. mansoni was maintained in Biomphalaria glabrata and CD1 mice. Oncomelania hupensis (hupensis) infected with S. japonicum (Chinese strain) and Bulinus truncatus (truncatus) infected with Egyptian strain S. haematobium were obtained from BEI Resources, NIAID, NIH. Infection of mice for worm recovery was as previously described except that, whereas cercariae of S. mansoni and S. haematobium were obtained by shedding from infected snails under lights, cercariae of S. japonicum were obtained by gently crushing the snails. Furthermore, adult S. haematobium were recovered after 12 weeks following mouse infection.
(§2) In vitro efficacy was carried out as previously described. In brief, worms were recovered from infected mice by portal perfusion 3 weeks (for juveniles) or 6 weeks (for adults) post-infection using warm perfusion medium (Dulbecco’s Modified Eagle’s Medium [DMEM], 2mM L-glutamine, 100 Units/ml penicillin, 100μg/ml streptomycin, 20mM Hepes, 10 Units/ml heparin [Sigma, UK]). Worms were washed free of red blood cells using the perfusion medium, and finally suspended in complete medium (cDMEM: DMEM, 2mM L-glutamine, 100 Units/ml penicillin, 100μg/ml streptomycin, 10% FCS). The juvenile assays were carried out in 96-well plates, each well containing 6–8 worms in 200 μL cDMEM. The adult worm assay was in 24-well plates, each well containing 3 worm pairs in 1mL cDMEM. Both the juvenile and adult worm cultures were kept at 37° C, in an atmosphere of 5% CO2. Drug effects were determined on day 5 following drug treatment by assessing the viability of individual worms as described in [14].

The test system of another data set is Adult S. mansoni. Briefly: In vitro adult S. mansoni worm assay. The data set is classed as cell-based. Conditions: Schistosoma mansoni, 120 h incubation.
From the text: as §1, §2

Data set [1] in a line: Human dose prediction with the PK Tool. From the text:
• We assume that the plasma concentration achieved in mouse sufficient to kill worms is the same as the plasma concentration we need to achieve in humans to see the same effect. A component element is an assumption that the mechanism of S. mansoni worm reduction in mouse and human are the same. • We assume that allometric scaling can be used to estimate human clearance based on mouse clearance. One factor that would make this assumption unsafe is if the clearance mechanisms and rates for our series in mouse and human were different. Fortunately, in vivo clearance correlates well with metabolic stability calculated from in vitro mouse hepatocyte measurements (Fig 7A). In vitro stability estimates in mouse and human hepatocytes are also fairly well correlated (Fig 7B).
Estimates of dose prediction in human were made using the PK Tool. A simple estimate of an effective human dose for LSHTM-3520 can be made by making the assumption that a plasma concentration of 2,000 ng/mL 24 h after oral administration (the same as that achieved in Fig 6B) would give sufficient clinical efficacy. […] To design compounds with a lower predicted human dose we pursued two strategies, one to improve potency by optimisation of the core and substituents, the other to decrease clearance through blocking positions we thought likely to be vulnerable to metabolic enzymes and/or conformational restriction.
Assuming linear kinetics the plasma levels scaled from the low-dose oral PK experiment (2.5 mg/kg) for LSHTM-3520 (8 ng/mL) after 24 h would be 160 ng/mL from […] and 640 ng/mL at […].

A further data set is described as follows: Mouse pharmacokinetics.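 On all read-outs here: three mice per experiment, dosed in 10% DMSO with 50 mM Na2HPO4 buffer plus Tween-80, plasma levels quantified by LC-MS against a calibration line prepared in blank matrix.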 Format: in vivo. Conditions: for scaled plasma level, fold above the calculated whole blood IC50: 24 h; for concentration at 24 h: oral, linear kinetics assumed, read-out: plasma level after 24 h scaled from the low-dose oral PK experiment.
For data set [2], the system named is S. mansoni juvenile worms. As to the kind of experiment: In vivo efficacy, mouse model of juvenile (21-day old) S. mansoni infection. The conditions noted are these: mouse; for Worms remaining: Juvenile infection, formulation Aq. The protocol:
(§3) Prior to in vivo efficacy experiments, a single animal was given a dose of drug (using the same formulation) that was twice as large as that planned for use in the efficacy experiments and was observed periodically for adverse clinical signs for 24h by trained veterinarians. Adverse clinical signs checked include postural defect, vocalization, oculo-nasal discharge, hypersalivation, change in activity, abnormal gait, respiration and pulse, piloerection, loss of pupillary reflex, eyelid reflex, chromodacryorrhea, reaction to handling, tremor, convulsions, prostration, diarrhoea, cachexia, emaciation. […] In vivo efficacy was assessed in female CD1 mice using methods based on those previously described. Mice were infected subcutaneously with 150 cercariae. Test compounds were suspended in 7% Tween-80 / 3% Ethanol / double distilled water and drug dispersal was facilitated by vortexing and using a sonicating water bath (Formulation “Aqueous”). Alternatively, drugs were first dissolved in DMSO, then diluted with corn oil to give a 1:19 DMSO:corn oil solution/suspension of test compound (Formulation “Corn oil”). Dosing was by oral gavage. Mice in the negative control groups were given the drug suspension vehicle only. Positive controls for treatment of adult, day 42 old, infections were treated with PZQ and those for juvenile, day 21 old, infections with artemether, which unlike PZQ is effective against the juvenile worm infections in mice. During and following treatment, mice were closely observed for any ill effects by staff experienced in animal handling. This involved individuals who were blinded to the treatment groups. Effects they were trained to look for included hunching, immobility, piloerection, subdued behaviour, diarrhoea and loss of body condition. None were seen. Worms were recovered by portal perfusion with citrate saline 8–14 days post treatment and counted. Differences between groups relative to the non-drug treated controls were assessed for statistical significance by Student’s unpaired t-test using GraphPad Prism Software. P values are presented as follows:- ns–P > 0.05 (not significant), * P ≤ 0.05, ** P ≤ 0.01, *** P ≤ 0.001, **** P ≤ 0.0001.
(§4) For pharmacokinetic analysis during the in vivo efficacy experiments individual animals were only sampled once. Samples were taken from one animal in each experimental group at each of 1, 4, 8 h and samples from two animals in each group were taken at 24 h.

Assay in data set [3]: as above
The conditions noted are these: female, CD1, plasma, mouse, Juvenile infection, formulation Aq, read-out: Plasma conc @24 h (efficacy experiment). On the procedure:
as §3, §4

Several values for one entry are separate records, joined by “and”; a condition that tells them apart may be missing. Equal values may be shown once. Read-outs that look alike come from different tables or passages of the source.

Method for Mouse pharmacokinetics: Routine pharmacokinetics was carried out as previously described [24] with the following modifications: Swiss albino male mice of average weight 30 g with three animals per experiment. The final vehicle was 10% DMSO, 90% 50 mM Na2HPO4 with 0.5% Tween-80. Compounds were dosed singly (at a variety of doses as noted in the text) or more commonly in mixtures of 5 at 1 mg/kg per compound iv into the lateral tail vein or 2.5 mg/kg per compound by oral gavage. ~30 μl blood samples were taken by venepuncture, into heparinized capillary tubes and subsequently transferred into 0.5 ml micro-centrifuge tubes. Collection time points were 5 min (iv only), 15 min, 30 min, 1 h, 2 h, 4 h, 8 h & 24 h. All blood samples were processed for plasma by centrifugation at 4,000 rpm for 10 min at 4°C within half an hour of collection. Plasma samples were stored at -20°C until bioanalysis.
Prior to LC-MS analysis, all samples were extracted using protein precipitation using acetonitrile as the extraction solvent. For each batch of samples, a calibration line spanning an appropriate concentration range was created by spiking the compound of interest into blank matrix. The calibration line included 10 evenly spaced points. […] Where necessary, additional dilution QCs were included to validate the dilution process. Within each batch at least 3 study samples were assayed pre and post dilution to assess whether there was any impact from the presence of dosing vehicle in the samples. A linear regression was performed on peak area response ratios (analyte:IS) and the results used to back-calculate analyte concentrations. A batch of samples were considered acceptable if 75% of the calibration samples and 66% of the standard QC samples were within 20% of nominal. The linear range of the assay was defined by the calibration line ±20% i.e. the maximum reportable concentration was 120% of the highest concentration calibration sample that passed acceptance criteria. A metric plot of the IS response was reviewed to ensure the integrity of the study sample data.

For the compound `CC(C)c1nc2cnc(-c3ccc(F)c(C(F)(F)F)c3)cn2c1-c1c(F)cc(O)cc1F` [LSHTM-3520], the half-maximal effective concentration (EC50) in the data set with Juvenile S. mansoni is 27 nM; with Adult S. mansoni (Table 2, in vitro, read-out: Adult S. mansoni EC50) it was 46 nM; in the data set on Adult S. mansoni (Table 3, S. mansoni, read-out: Sm adult EC50), 46.2 nM. Also, the “human single oral dose prediction” value in data set [1] (PK Tool, predicted plasma conc at 24 h 7 fold above calculated adult worm blood potency) is given as 25 mg/kg. The “predicted single human oral dose (simple estimate)” value in data set [1] (target 2,000 ng/mL at 24 h, allometric scaling from mouse, exponent 0.75) is reported as 48 mg/kg. In addition, the Clobs in the data set “Mouse pharmacokinetics” (0.5 mg/kg iv, in a mixture of 5 compounds, 0.5 mg/kg) is 1.1 L/h/kg and 1.08 L/h/kg. Besides, the figures for the “scaled plasma level, fold above the calculated whole blood IC50” value in the data set “Mouse pharmacokinetics” (50 mg/mL (so in the source)) and in “Mouse pharmacokinetics” (200 mg/mL (so in the source)) were 1.3 fold and 5.3 fold, respectively. In addition, the “Plasma conc @ 24 h after oral dose” value in the data set “Mouse pharmacokinetics” ([…] oral, mixture of 5 compounds, […]) is on record as 8.1 ng/mL. The AUC(0-inf) in “Mouse pharmacokinetics” (male, Swiss albino, plasma, 0.5 mg/kg iv, in a mixture of 5 compounds) is 500 ng·h/mL. The Vd in “Mouse pharmacokinetics” (male, Swiss albino, plasma, 0.5 mg/kg iv, in a mixture of 5 compounds, read-out: Vss) was 7.1 L/kg. The bioavailability in the data set “Mouse pharmacokinetics” (male, Swiss albino, plasma, 2.5 mg/kg oral, mixture of 5 compounds, calculated values > 100% shown as 100) was 50%. Further, the half-life in “Mouse pharmacokinetics” (male, Swiss albino, plasma, iv, 0.5 mg/kg, 0.5 mg/kg iv, in a mixture of 5 compounds, sampled over 24 h) is 420 min. The concentration at 24 h stood at 160 ng/mL in the data set “Mouse pharmacokinetics” (male, Swiss albino, plasma, 50 mg/mL, scaled from […] to 50 mg/mL (so in the source)); 640 ng/mL in “Mouse pharmacokinetics” (male, Swiss albino, plasma, 200 mg/mL, scaled from […] to 200 mg/mL (so in the source)); 208 ng/mL in data set [3] (oral 50 mg/kg); 1980 ng/mL in data set [3] (oral 200 mg/kg). Besides, the “efficacy in vivo against juvenile worm infection” value in data set [2] (21-day old infections, single oral dose, Aqueous formulation (Fig 8)) is “effective”. In addition, the Worms remaining in data set [2] (oral 50 mg/kg) stood at 62%; in data set [2] (oral 200 mg/kg), 16%.

What is called EC50 is the midpoint of the concentration-response curve. Broadly, the AUC(0-inf) is total exposure, with the tail of the curve extrapolated. In general, bioavailability refers to the share of a dose that reaches the circulation, judged against a reference dose that is usually intravenous. What is called half-life is how long it takes for the measured level to halve.

The record behind these values is article PMC8321398, “The discovery of a novel series of compounds with single-dose efficacy against juvenile and adult Schistosoma species” (PLoS Neglected Tropical Diseases, 2021).
